How the values were obtained:
liver = details: in vivo; cited from earlier work
rodent = details: in vivo; cited from earlier work
[1] = test system: mRNA expressed from the genes (A) to (D) in rat liver; test: Behavior of genes (mRNA expression level, oligo-DNA microarray) in rat liver after 28-day oral administration; assay type: in vivo
Procedure, shortened: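 Liver mRNA measured by oligo-DNA microarray after 28 days of once-daily oral gavage in 5-week-old male F344 rats (n=4 per group), with vehicle controls given equal solvent volume. Significance threshold: 1.5-fold up or down versus control, with changes opposite in direction to other carcinogens counted as not significant.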

[2] = gene group (A), Unigene No. Rn.167075
[3] = gene group (C), Unigene No. Rn.120914
[4] = (C), Unigene Rn.120914, defined direction +, rat liver, oral once daily 28 days

ClC1=C(Cl)[C@]2(Cl)[C@@H]3[C@@H]4C[C@@H]([C@H]5O[C@@H]45)[C@@H]3[C@@]1(Cl)C2(Cl)Cl [TS017, Dieldrin]
Liver carcinogenicity (liver): Cr− | Carcinogenicity (rodent): C+ | Behavior of gene caused by administration of chemical substance, Gene No. 4846 ([1]; gene group (A), Unigene No. Rn.144554): − | Behavior of gene caused by administration of chemical substance, Gene No. 2026 [1, 2]: − | Behavior of gene caused by administration of chemical substance, Gene No. 4218 [1, 2]: − | Behavior of gene caused by administration of chemical substance, Gene No. 6182 ([1]; gene group (A), Unigene No. Rn.5834): + | Behavior of gene caused by administration of chemical substance, Gene No. 5600 ([1]; gene group (A), Unigene No. Rn.9836): − | Behavior of gene caused by administration of chemical substance, Gene No. 1494 ([1]; gene group (B), Unigene No. Rn.1430): + | Behavior of gene caused by administration of chemical substance, Gene No. 2045 ([1]; gene group (B), Unigene No. Rn.19329): + | Behavior of gene caused by administration of chemical substance, Gene No. 2203 ([1]; gene group (B), Unigene No. Rn.21240): + | Behavior of gene caused by administration of chemical substance, Gene No. 533 ([1]; gene group (C), Unigene No. Rn.106184): + | Behavior of gene caused by administration of chemical substance, Gene No. 725 ([1]; gene group (C), Unigene No. Rn.108075): − | Behavior of gene caused by administration of chemical substance, Gene No. 1163 ([1]; gene group (C), Unigene No. Rn.11766): − | Behavior of gene caused by administration of chemical substance, Gene No. 4973 ([1]; gene group (C), Unigene No. Rn.118529): − | Behavior of gene caused by administration of chemical substance, Gene No. 4095 ([1]; gene group (C), Unigene No. Rn.119024): − | Behavior of gene caused by administration of chemical substance, Gene No. 1334 [1, 3]: − | Behavior of gene caused by administration of chemical substance, Gene No. 6620 [1, 3]: − | Behavior of gene caused by administration of chemical substance, Gene No. 6303 ([1]; gene group (C), Unigene No. Rn.123063): − | Behavior of gene caused by administration of chemical substance, Gene No. 5878 ([1]; gene group (C), Unigene No. Rn.143213): − | Behavior of gene caused by administration of chemical substance, Gene No. 1131 ([1]; gene group (C), Unigene No. Rn.144946): − | Behavior of gene caused by administration of chemical substance, Gene No. 1562 ([1]; gene group (C), Unigene No. Rn.14744): − | Behavior of gene caused by administration of chemical substance, Gene No. 1741 ([1]; gene group (C), Unigene No. Rn.1647): − | Behavior of gene caused by administration of chemical substance, Gene No. 893 ([1]; gene group (C), Unigene No. Rn.164817): − | Behavior of gene caused by administration of chemical substance, Gene No. 6026 ([1]; gene group (C), Unigene No. Rn.167685): − | Behavior of gene caused by administration of chemical substance, Gene No. 154 ([1]; gene group (C), Unigene No. Rn.185941): − | Behavior of gene caused by administration of chemical substance, Gene No. 1993 ([1]; gene group (C), Unigene No. Rn.18728): − | Behavior of gene caused by administration of chemical substance, Gene No. 813 ([1]; gene group (C), Unigene No. Rn.201760): − | Behavior of gene caused by administration of chemical substance, Gene No. 2494 ([1]; gene group (C), Unigene No. Rn.23969): − | Behavior of gene caused by administration of chemical substance, Gene No. 2546 ([1]; gene group (C), Unigene No. Rn.24561): − | Behavior of gene caused by administration of chemical substance, Gene No. 3776 ([1]; gene group (C), Unigene No. Rn.43232): − | Behavior of gene caused by administration of chemical substance, Gene No. 3929 ([1]; gene group (C), Unigene No. Rn.4620): − | Behavior of gene caused by administration of chemical substance, Gene No. 1119 ([1]; gene group (C), Unigene No. Rn.9757): − | Behavior of gene caused by administration of chemical substance, Gene No. 6742 ([1]; gene group (C), Unigene No. Rn.9779): − | Behavior of gene caused by administration of chemical substance, Gene No. 5634 ([1]; gene group (C), Unigene No. Rn.9862): − | Behavior of gene caused by administration of chemical substance, Gene No. 5726 ([1]; gene group (D), Unigene No. Rn.9939): −

CCN(CC)N=O [TS011, Diethylnitrosamine]
Liver carcinogenicity (liver): Cr+ | Carcinogenicity (rodent): C+ | Behavior of gene caused by administration of chemical substance, Gene No. 4846 ([1]; (A), Unigene Rn.144554, defined direction +, rat liver, oral once daily 28 days): + | Behavior of gene caused by administration of chemical substance, Gene No. 4218 ([1]; (A), Unigene Rn.167075, defined direction +, rat liver, oral once daily 28 days, significant = 1.5 times or more or 1/1.5 or less of control): + | Behavior of gene caused by administration of chemical substance, Gene No. 2026 ([1]; (A), Unigene Rn.167075, defined direction −, rat liver, oral once daily 28 days): + | Behavior of gene caused by administration of chemical substance, Gene No. 6182 ([1]; (A), Unigene Rn.5834, defined direction +, rat liver, oral once daily 28 days): + | Behavior of gene caused by administration of chemical substance, Gene No. 5600 ([1]; (A), Unigene Rn.9836, defined direction +, rat liver, oral once daily 28 days): + | Behavior of gene caused by administration of chemical substance, Gene No. 1494 ([1]; (B), Unigene Rn.1430, defined direction −, rat liver, oral once daily 28 days): + | Behavior of gene caused by administration of chemical substance, Gene No. 2045 ([1]; (B), Unigene Rn.19329, defined direction +, rat liver, oral once daily 28 days): − | Behavior of gene caused by administration of chemical substance, Gene No. 2203 ([1]; (B), Unigene Rn.21240, defined direction +, rat liver, oral once daily 28 days): − | Behavior of gene caused by administration of chemical substance, Gene No. 533 ([1]; (C), Unigene Rn.106184, defined direction +, rat liver, oral once daily 28 days): + | Behavior of gene caused by administration of chemical substance, Gene No. 725 ([1]; (C), Unigene Rn.108075, defined direction −, rat liver, oral once daily 28 days): − | Behavior of gene caused by administration of chemical substance, Gene No. 1163 ([1]; (C), Unigene Rn.11766, defined direction +, rat liver, oral once daily 28 days): − | Behavior of gene caused by administration of chemical substance, Gene No. 4973 ([1]; (C), Unigene Rn.118529, defined direction −, rat liver, oral once daily 28 days): + | Behavior of gene caused by administration of chemical substance, Gene No. 4095 ([1]; (C), Unigene Rn.119024, defined direction −, rat liver, oral once daily 28 days): + | Behavior of gene caused by administration of chemical substance, Gene No. 1334 [1, 4]: − | Behavior of gene caused by administration of chemical substance, Gene No. 6620 [1, 4]: − | Behavior of gene caused by administration of chemical substance, Gene No. 6303 ([1]; (C), Unigene Rn.123063, defined direction −, rat liver, oral once daily 28 days): + | Behavior of gene caused by administration of chemical substance, Gene No. 5878 ([1]; (C), Unigene Rn.143213, defined direction −, rat liver, oral once daily 28 days): − | Behavior of gene caused by administration of chemical substance, Gene No. 1131 ([1]; (C), Unigene Rn.144946, defined direction −, rat liver, oral once daily 28 days): − | Behavior of gene caused by administration of chemical substance, Gene No. 1562 ([1]; (C), Unigene Rn.14744, defined direction −, rat liver, oral once daily 28 days): + | Behavior of gene caused by administration of chemical substance, Gene No. 1741 ([1]; (C), Unigene Rn.1647, defined direction −, rat liver, oral once daily 28 days): + | Behavior of gene caused by administration of chemical substance, Gene No. 893 ([1]; (C), Unigene Rn.164817, defined direction +, rat liver, oral once daily 28 days): + | Behavior of gene caused by administration of chemical substance, Gene No. 6026 ([1]; (C), Unigene Rn.167685, defined direction −, rat liver, oral once daily 28 days): + | Behavior of gene caused by administration of chemical substance, Gene No. 154 ([1]; (C), Unigene Rn.185941, defined direction −, rat liver, oral once daily 28 days): + | Behavior of gene caused by administration of chemical substance, Gene No. 1993 ([1]; (C), Unigene Rn.18728, defined direction −, rat liver, oral once daily 28 days): + | Behavior of gene caused by administration of chemical substance, Gene No. 813 ([1]; (C), Unigene Rn.201760, defined direction +, rat liver, oral once daily 28 days): − | Behavior of gene caused by administration of chemical substance, Gene No. 2494 ([1]; (C), Unigene Rn.23969, defined direction +, rat liver, oral once daily 28 days): + | Behavior of gene caused by administration of chemical substance, Gene No. 2546 ([1]; (C), Unigene Rn.24561, defined direction −, rat liver, oral once daily 28 days): + | Behavior of gene caused by administration of chemical substance, Gene No. 3776 ([1]; (C), Unigene Rn.43232, defined direction −, rat liver, oral once daily 28 days): − | Behavior of gene caused by administration of chemical substance, Gene No. 3929 ([1]; (C), Unigene Rn.4620, defined direction +, rat liver, oral once daily 28 days): − | Behavior of gene caused by administration of chemical substance, Gene No. 1119 ([1]; (C), Unigene Rn.9757, defined direction +, rat liver, oral once daily 28 days): − | Behavior of gene caused by administration of chemical substance, Gene No. 6742 ([1]; (C), Unigene Rn.9779, defined direction +, rat liver, oral once daily 28 days): − | Behavior of gene caused by administration of chemical substance, Gene No. 5634 ([1]; (C), Unigene Rn.9862, defined direction −, rat liver, oral once daily 28 days): − | Behavior of gene caused by administration of chemical substance, Gene No. 5726 ([1]; (D), Unigene Rn.9939, defined direction −, rat liver, oral once daily 28 days): −
